Results from US8299065B2, “Antibacterial condensed thiazoles” (Biota Europe Ltd., priority 2007, dated 2012).
Converted amounts (≈) assume the structure as drawn. Each block holds one molecule with its values, some of them ahead of it.

Tests used:
[1] = tested on: Enterococcus faecalis ATCC 29212; experiment: MIC testing against Enterococcus faecalis ATCC 29212; format: cell-based; settings: ATCC29212, read-out: MICs against Enterococcus faecalis, Activity
Procedure: (§1) Minimum Inhibitory Concentration (MIC) Testing Compounds of this invention were tested for antimicrobial activity by susceptibility testing in liquid or on solid media. MICs for compounds against each strain were determined by the broth microdilution or agar dilution method according to the guidelines of the Clinical Laboratories and Standards Institute, formerly the National Committee for Clinical Laboratory Standards (Clinical Laboratories and Standards Institute. Methods for Dilution Antimicrobial Susceptibility Tests for Bacteria That Grow Aerobically; Approved Standard—Seventh Edition. Document M7-A7. CLSI, Wayne, Pa., 2006; Clinical Laboratories and Standards Institute. Methods for Antimicrobial Susceptibility Testing of Anaerobic Bacteria; Approved Standard—Sixth Edition. Document M11-A6. CLSI, Wayne, Pa., 2004).

[2] = tested on: Enterococcus faecalis (VRE) ATCC 51299; experiment: MIC testing, various bacteria; format: cell-based
Procedure: (§2) Minimum Inhibitory Concentration (MIC) Testing
as §1, with “Compounds” for “Minimum Inhibitory Concentration (MIC) Testing Compounds”
(§3) Some of the Example compounds were also tested for activity against other bacterial species.

[3] = tested on: Enterococcus faecium (VRE) ATCC 700221; experiment: MIC testing, various bacteria; format: cell-based
Procedure: as §2
as §1, with “Compounds” for “Minimum Inhibitory Concentration (MIC) Testing Compounds”
as §3

[4] = tested on: Haemophilus influenzae ATCC 49247; experiment: MIC testing, various bacteria; format: cell-based; settings: ATCC49247
Procedure: as §2
as §1, with “Compounds” for “Minimum Inhibitory Concentration (MIC) Testing Compounds”
as §3

[5] = tested on: Moraxella catarrhalis ATCC 25240; experiment: MIC testing, various bacteria; format: cell-based; settings: ATCC25240
Procedure: as §2
as §1, with “Compounds” for “Minimum Inhibitory Concentration (MIC) Testing Compounds”
as §3

[6] = tested on: Staphylococcus aureus ATCC 29213; experiment: MIC testing, various bacteria; format: cell-based; settings: ATCC29213
Procedure: as §2
as §1, with “Compounds” for “Minimum Inhibitory Concentration (MIC) Testing Compounds”
as §3

[7] = tested on: Staphylococcus epidermidis ATCC 12228; experiment: MIC testing, various bacteria; format: cell-based; settings: ATCC12228
Procedure: as §2
as §1, with “Compounds” for “Minimum Inhibitory Concentration (MIC) Testing Compounds”
as §3

[8] = tested on: Staphylococcus haemolyticus ATCC 29970; experiment: MIC testing, various bacteria; format: cell-based; settings: ATCC29970
Procedure: as §2
as §1, with “Compounds” for “Minimum Inhibitory Concentration (MIC) Testing Compounds”
as §3

[9] = tested on: Streptococcus agalactiae ATCC 13813; experiment: MIC testing, various bacteria; format: cell-based; settings: ATCC13813
Procedure: as §2
as §1, with “Compounds” for “Minimum Inhibitory Concentration (MIC) Testing Compounds”
as §3

[10] = tested on: Streptococcus mutans ATCC 35668; experiment: MIC testing, various bacteria; format: cell-based; settings: ATCC35668
Procedure: as §2
as §1, with “Compounds” for “Minimum Inhibitory Concentration (MIC) Testing Compounds”
as §3

[11] = tested on: Streptococcus pneumoniae ATCC 49619; experiment: MIC testing, various bacteria; format: cell-based; settings: ATCC49619
Procedure: as §2
as §1, with “Compounds” for “Minimum Inhibitory Concentration (MIC) Testing Compounds”
as §3

[12] = tested on: Streptococcus pyogenes ATCC 51339; experiment: MIC testing, various bacteria; format: cell-based; settings: ATCC51339
Procedure: as §2
as §1, with “Compounds” for “Minimum Inhibitory Concentration (MIC) Testing Compounds”
as §3

[13] = tested on: Enterococcus faecalis clinical isolates; experiment: MIC testing, clinical isolates; format: cell-based; settings: 10 clinical isolates
Procedure: as §1, with “2004). Some of the Example compounds were also tested for activity against clinical isolates of various bacterial species.” for “2004).”

[14] = tested on: Enterococcus faecium clinical isolates; experiment: MIC testing, clinical isolates; format: cell-based; settings: 10 clinical isolates
Procedure: as §1, with “2004). Some of the Example compounds were also tested for activity against clinical isolates of various bacterial species.” for “2004).”

[15] = tested on: Propionibacterium acnes clinical isolates; experiment: MIC testing, clinical isolates; format: cell-based; settings: 5 clinical isolates
Procedure: as §1, with “2004). Some of the Example compounds were also tested for activity against clinical isolates of various bacterial species.” for “2004).”

[16] = tested on: Staphylococcus epidermidis clinical isolates; experiment: MIC testing, clinical isolates; format: cell-based; settings: 10 clinical isolates
Procedure: as §1, with “2004). Some of the Example compounds were also tested for activity against clinical isolates of various bacterial species.” for “2004).”

[17] = tested on: Staphylococus aureus clinical isolates; experiment: MIC testing, clinical isolates; format: cell-based; settings: 10 clinical isolates
Procedure: as §1, with “2004). Some of the Example compounds were also tested for activity against clinical isolates of various bacterial species.” for “2004).”

[18] = tested on: Streptococcus pneumoniae clinical isolates; experiment: MIC testing, clinical isolates; format: cell-based; settings: 10 clinical isolates
Procedure: as §1, with “2004). Some of the Example compounds were also tested for activity against clinical isolates of various bacterial species.” for “2004).”

[19] = tested on: Streptococcus pyogenes clinical isolates; experiment: MIC testing, clinical isolates; format: cell-based; settings: 10 clinical isolates
Procedure: as §1, with “2004). Some of the Example compounds were also tested for activity against clinical isolates of various bacterial species.” for “2004).”

- MIC [1]: 0.25 to 1 µg/mL (≈ 0.761 to 3.05 µM)
- MIC [2]: 2 to 16 µg/mL (≈ 6.09 to 48.7 µM)
- MIC [3]: 2 to 16 µg/mL (≈ 6.09 to 48.7 µM)
- MIC [4]: 2 to 16 µg/mL (≈ 6.09 to 48.7 µM)
- MIC [5]: 0.25 to 1 µg/mL (≈ 0.761 to 3.05 µM)
- MIC [6]: 0.25 to 1 µg/mL (≈ 0.761 to 3.05 µM)
- MIC [7]: 0.25 to 1 µg/mL (≈ 0.761 to 3.05 µM)
- MIC [9]: 0.25 to 1 µg/mL (≈ 0.761 to 3.05 µM)
- MIC [10]: 0.25 to 1 µg/mL (≈ 0.761 to 3.05 µM)
- MIC [11]: < 0.25 µg/mL
- MIC [12]: 0.25 to 1 µg/mL (≈ 0.761 to 3.05 µM)
SMILES: CCNC(=O)Nc1nc2cc(-c3ccn(C)c(=O)c3)ccc2s1 [Example 3, 1-Ethyl-3-(5-(1-methyl-2-oxo-1,2-dihydro-pyridin-4-yl)-benzothiazol-2-yl)urea]
- MIC [8]: 0.25 to 1 µg/mL (≈ 0.761 to 3.05 µM)

- MIC [1]: 0.25 to 1 µg/mL (≈ 0.79 to 3.16 µM)
- melting point: 199.1 °C
SMILES: CCNC(=O)Nc1nc2cc(-c3cccnc3)c(F)cc2s1 [Example 4, 1-Ethyl-3-(6-fluoro-5-pyridin-3-yl-benzothiazol-2-yl)-urea]

- MIC [1]: 0.25 to 1 µg/mL (≈ 0.571 to 2.29 µM)
- MIC90 [13]: 0.25 µg/mL (≈ 0.571 µM)
- MIC range [13]: 0.06 to 0.5 µg/mL
- MIC90 [14]: 0.5 µg/mL (≈ 1.14 µM)
- MIC range [14]: 0.25 to 0.5 µg/mL
- MIC range [15]: 1 µg/mL (≈ 2.29 µM)
- MIC90 ([15]; Cutibacterium acnes): 1 µg/mL (≈ 2.29 µM)
- MIC90 [16]: 0.03 µg/mL (≈ 0.0686 µM)
- MIC range [16]: 0.008 to 0.06 µg/mL
- MIC90 [17]: 0.06 µg/mL (≈ 0.137 µM)
- MIC range [17]: 0.03 to 0.12 µg/mL
- MIC90 [18]: 0.015 µg/mL (≈ 0.0343 µM)
- MIC range [18]: 0.008 to 0.03 µg/mL
- MIC90 [19]: 0.25 µg/mL (≈ 0.571 µM)
- MIC range [19]: 0.12 to 0.5 µg/mL
SMILES: CCNC(=O)Nc1nc2cc(-c3cc(C)n(Cc4cccnc4)c(=O)c3)c(F)cc2s1 [Example 49, 1-ethyl-3-(6-fluoro-5-(6-methyl-2-oxo-1-(pyridin-3-ylmethyl)-1,2-dihydropyridin-4-yl)benzo[d]thiazol-2-yl)urea]
